pKi: −log10 of the molar value.
How the values were obtained:
Test in all cases: Serine Protease Inhibition Assay
Serine protease 1 = biological target: T1, Serine protease 1 (Bos taurus, UniProt P00760)
T1 sequence (P00760 whole entry): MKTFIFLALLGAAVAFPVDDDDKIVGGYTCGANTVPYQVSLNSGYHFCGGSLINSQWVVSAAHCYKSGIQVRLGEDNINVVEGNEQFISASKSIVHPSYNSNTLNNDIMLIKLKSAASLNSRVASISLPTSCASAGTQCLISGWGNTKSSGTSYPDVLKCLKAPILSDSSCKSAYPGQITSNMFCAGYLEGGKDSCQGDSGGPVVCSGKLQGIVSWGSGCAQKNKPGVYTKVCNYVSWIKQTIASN
Description: (§1) The enzyme reactions were initiated by the addition of substrate, and the color developed from the release of p-nitroanilide from each chromogenic substrate was monitored continuously for 5 min at 405 nm on a microtiter plate reader. […] The apparent Ki values were then calculated according to the Cheng-Prusoff equation: Ki = IC50/1 + [S]/Km.

Coagulation factor VII = biological target: T2, Coagulation factor VII (Homo sapiens, UniProt P08709); conditions: pH 7.8; 22 °C
T2 sequence (P08709 whole entry): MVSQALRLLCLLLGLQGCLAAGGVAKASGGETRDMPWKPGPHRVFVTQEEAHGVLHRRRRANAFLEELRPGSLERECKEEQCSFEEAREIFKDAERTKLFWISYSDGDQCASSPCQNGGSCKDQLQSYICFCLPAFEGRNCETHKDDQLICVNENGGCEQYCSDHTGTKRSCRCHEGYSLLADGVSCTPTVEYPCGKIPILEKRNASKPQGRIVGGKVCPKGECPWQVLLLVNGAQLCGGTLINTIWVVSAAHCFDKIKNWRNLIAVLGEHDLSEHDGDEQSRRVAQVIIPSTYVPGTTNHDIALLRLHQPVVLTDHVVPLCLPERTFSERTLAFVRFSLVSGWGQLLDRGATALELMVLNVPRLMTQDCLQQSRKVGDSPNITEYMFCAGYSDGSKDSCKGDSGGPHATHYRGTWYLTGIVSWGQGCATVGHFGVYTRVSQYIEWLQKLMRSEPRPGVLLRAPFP
Description: as §1

Coagulation factor X = Coagulation factor X (Homo sapiens, UniProt P00742)
Chain of Coagulation factor X (P00742 41-179 limits assumed): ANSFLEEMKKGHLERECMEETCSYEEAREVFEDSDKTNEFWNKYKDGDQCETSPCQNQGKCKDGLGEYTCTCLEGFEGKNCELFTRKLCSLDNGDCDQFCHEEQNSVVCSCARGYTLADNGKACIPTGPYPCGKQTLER
Chain of Coagulation factor X (P00742 235-488 limits assumed): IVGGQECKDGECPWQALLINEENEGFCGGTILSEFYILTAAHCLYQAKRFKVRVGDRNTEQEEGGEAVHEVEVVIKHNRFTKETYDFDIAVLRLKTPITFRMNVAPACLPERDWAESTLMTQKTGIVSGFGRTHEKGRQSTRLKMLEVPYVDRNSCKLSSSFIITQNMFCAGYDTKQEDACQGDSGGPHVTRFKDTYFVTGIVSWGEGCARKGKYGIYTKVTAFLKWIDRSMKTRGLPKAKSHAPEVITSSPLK
Description: as §1

Prothrombin = Prothrombin (Homo sapiens, UniProt P00734)
Description: as §1

COc1cc(C(Nc2ccc(C(=N)N)cc2)C(=O)N[C@H](C(=O)O)c2ccccc2)c(C(=O)Cc2ccccc2)cc1OCc1ccccc1 (stereo partly drawn) [(2S)-2-{2-[4-(benzyloxy)-5-methoxy-2-(2-phenylacetyl)phenyl]-2-[(4-carbamimidoylphenyl)amino]acetamido}-2-phenylacetic acid]
pKi (Serine protease 1): 7.10
pKi (Coagulation factor VII): 8.15
pKi (Coagulation factor X): 4.72
pKi (Prothrombin): 5.19

COc1cc(C(Nc2ccc(C(=N)N)cc2)C(=O)N[C@H](C(=O)O)c2ccccc2)c(S(=O)(=O)c2ccccc2)cc1OCc1ccccc1 (some centres not stated) [phenylglycine amide compound 10]
pKi (Serine protease 1): 7.30
pKi (Coagulation factor X): 4.91
pKi (Prothrombin): 6.27
